According to PubChem BioAssay AID1259411 (Chemical Carcinogenesis Research Information System (CCRIS), 2018):
The source made the active and inactive calls. No rule for the calls is given here.

Test system: rodent carcinogenicity bioassays, tumor incidence
Experiment: CCRIS carcinogenicity studies
Summary of the method: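 NCI-built, expert-reviewed records of carcinogenicity and related test outcomes (mutagenicity, tumor promotion/inhibition) compiled from published and report sources, historical span 1985-2011, not updated.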

## CCCCN(CCCCO)N=O
Species: MOUSE, Strain/Sex: B6C3F1/MALE, Route: ORAL, Dose: 0, 0.05% IN DRINKING WATER FOR 12 WK (STUDY DURATION: 20 WK), Tumor Site: Type of Lesion: BLADDER: SQUAMOUS CELL CARCINOMA
  carcinogen call: active; positive
Species: MOUSE, Strain/Sex: B6D2F1/FEMALE, Route: ORAL, Dose: 0, 523 MG/L IN DRINKING WATER FOR 13 WK (STUDY DURATION: 28 WK), Tumor Site: Type of Lesion: URINARY BLADDER: TUMOR
  carcinogen call: active; positive
Species: MOUSE, Strain/Sex: B6D2F1/MALE, Route: ORAL, Dose: 0, 0.05% IN DRINKING WATER FOR 26 WK (STUDY DURATION: 26 WK), Tumor Site: Type of Lesion: URINARY BLADDER: TRANSITIONAL CELL CARCINOMA
  carcinogen call: active; positive
Species: MOUSE, Strain/Sex: B6D2F1/MALE, Route: ORAL, Dose: 0, 5 MG TWICE/WK BY GAVAGE FOR 10 WK (STUDY DURATION: 30 WK), Tumor Site: Type of Lesion: URINARY BLADDER: TRANSITIONAL CELL CARCINOMA
  carcinogen call: active; positive
Species: MOUSE, Strain/Sex: B6D2F1/MALE, Route: ORAL, Dose: 0, 523 MG/L IN DRINKING WATER FOR 13 WK (STUDY DURATION: 28 WK), Tumor Site: Type of Lesion: URINARY BLADDER: TUMOR
  carcinogen call: active; positive
Species: MOUSE, Strain/Sex: DS/SHI/MALE, Route: ORAL, Dose: 0, 0.05% IN DRINKING WATER FOR 12 WK (STUDY DURATION: 20 WK), Tumor Site: Type of Lesion: BLADDER: TRANSITIONAL CELL CARCINOMA
  carcinogen call: active; positive
Species: MOUSE, Strain/Sex: NON/SHI/MALE, Route: ORAL, Dose: 0, 0.05% IN DRINKING WATER FOR 4 WK (STUDY DURATION: 36 WK), Tumor Site: Type of Lesion: KIDNEY: TRANSITIONAL CELL CARCINOMA PAPILLOMA, BLADDER: TRANSITIONAL CELL CARCINOMA
  carcinogen call: active; positive
Species: MOUSE, Strain/Sex: NON/SHI/MALE, Route: ORAL, Dose: 0, 0.05% IN DRINKING WATER FOR 12 WK (STUDY DURATION: 20 WK), Tumor Site: Type of Lesion: KIDNEY: TRANSITIONAL CELL CARCINOMA, SQUAMOUS CELL CARCINOMA, BLADDER: TRANSITIONAL CELL CARCINOMA
  carcinogen call: active; positive
Species: Mouse, Strain/Sex: Nrf2-/-, p53+/-, Nrf2-/-::p53+/-, and wild type, Route: Oral, Dose: 0.05% in drinking water for 8 wk, study duration 8 wk
  carcinogen call: urinary bladder: carcinoma, 63.0% in nrf2-/- mice, 75.8% in p53+/- mice, 89.6% i
Species: RAT, Strain/Sex: ACI/MALE, Route: ORAL, Dose: 0, 0.05% IN DRINKING WATER FOR 4-24 WK, Tumor Site: Type of Lesion: URINARY BLADDER: PAPILLOMA, TRANSITIONAL CELL CARCINOMA, SQUAMOUS CELL CARCINOMA
  carcinogen call: active; positive
Species: RAT, Strain/Sex: F344/MALE, Route: ORAL, Dose: 0, 0.05% IN DRINKING WATER FOR 10 WK (STUDY DURATION: 20 WK), Tumor Site: Type of Lesion: URINARY BLADDER: TRANSITIONAL CELL CARCINOMA
  carcinogen call: active; positive
Species: RAT, Strain/Sex: F344/MALE, Route: ORAL, Dose: 0, 1, 5, 10, 50 PPM IN DRINKING WATER FOR 112 WK (STUDY DURATION: 112 WK), Dose: 0, 1, 5, 10, 50 PPM IN DRINKING WATER FOR 112 WK (STUDY DURATION: 112 WK), Tumor Site: Type of Lesion: BLADDER: CARCINOMA, PAPILLOMA
  carcinogen call: active; positive

## CCCC1O[C@@H]2C[C@H]3[C@@H]4CCC5=CC(=O)C=C[C@]5(C)[C@H]4[C@@H](O)C[C@]3(C)[C@]2(C(=O)CO)O1 (stereo partly drawn)
Species: RAT, Strain/Sex: SPRAGUE-DAWLEY/MALE, Route: ORAL, Dose: 0, 5 UG/ML IN DRINKING WATER FOR AN AVERAGE DAILY DOSE OF 46.6 UG/KG FOR 104 WK (STUDY DURATION: 104 WK), Tumor Site: Type of Lesion: LIVER: HEPATOCELLULAR ADENOMA OR CARCINOMA
  carcinogen call: active; positive

## C#CC(C)(C)NC(=O)c1cc(Cl)cc(Cl)c1
Species: MOUSE, Strain/Sex: B6C3F1/MALE, Route: ORAL, Dose: 0, 20, 100, 500, 2500 PPM IN DIET FOR 12, 18 OR 24 MO (STUDY DURATION: 24 MO), Dose: 0, 20, 100, 500, 2500 PPM IN DIET FOR 12, 18 OR 24 MO (STUDY DURATION: 24 MO), Tumor Site: Type of Lesion: LIVER: HEPATOCELLULAR CARCINOMA OR ADENOMA
  carcinogen call: active; positive

## CN(C)C(=O)Nc1ccc(Cl)c(Cl)c1
Species: MOUSE, Strain/Sex: SWISS/FEMALE, Route: DERMAL, Dose: 0, 250 MG/KG IN 100 µL DMSO TO INTERSCAPULAR REGION 3/WK FOR 3 WK FOLLOWED 1 WK LATER BY 100 µL ACETONE 3/WK FOR DURATIO
  carcinogen call: inactive; negative
Species: Mouse, Strain/Sex: Bor strain NMRI SPF HAN/Female (60/Group), Route: Oral, Dose: 0, 25, 250, 2500 ppm 98.7% diuron in diet for 24 mo, study duration 24 mo, Dose: 0, 25, 250, 2500 ppm 98.7% diuron in diet for 24 mo, study duration 24 mo, Tumor Site: Type of Lesion: Mammary gland: Adenocarcinoma (highest dose only)
  carcinogen call: active; positive. (ca department of pesticide regulation reviewer evaluates as a possibl
Species: Mouse, Strain/Sex: Bor strain NMRI SPF HAN/Male (60/Group), Route: Oral, Dose: 0, 25, 250, 2500 ppm 98.7% diuron in diet for 24 mo, study duration 24 mo, Dose: 0, 25, 250, 2500 ppm 98.7% diuron in diet for 24 mo, study duration 24 mo
  carcinogen call: inactive; negative
Species: Rat, Strain/Sex: Wistar/Female (50/Group), Route: Oral, Dose: 0, 25, 250, 2500 ppm 98.7% diuron in diet for 2 yr, study duration 2 yr, Dose: 0, 25, 250, 2500 ppm 98.7% diuron in diet for 2 yr, study duration 2 yr, Tumor Site: Type of Lesion: Urinary bladder: Transitional epithelial cell carcinoma (highest dose only)
  carcinogen call: active; positive. (ca department of pesticide regulation reviewer evaluates as a possibl
Species: Rat, Strain/Sex: Wistar/Male (50/Group), Route: Oral, Dose: 0, 25, 250, 2500 ppm 98.7% diuron in diet for 2 yr, study duration 2 yr, Dose: 0, 25, 250, 2500 ppm 98.7% diuron in diet for 2 yr, study duration 2 yr, Tumor Site: Type of Lesion: Urinary bladder: Transitional epithelial cell carcinoma (highest dose only). Kidney: Epithelial cell tumors in renal pel
  carcinogen call: active; positive. (ca department of pesticide regulation reviewer evaluates as a possibl

## O=P(O)(OCC(Br)CBr)OCC(Br)CBr (stereo not drawn)
Species: RAT, Strain/Sex: WISTAR/FEMALE, Route: ORAL, Dose: 0, 80, 400, 2000 IN DIET FOR 24 MO (STUDY DURATION: 24 MO), Dose: 0, 80, 400, 2000 IN DIET FOR 24 MO (STUDY DURATION: 24 MO), Tumor Site: Type of Lesion: LIVER: HEPATOCELLULAR CARCINOMA, SMALL INTESTINE: ADENOCARCINOMA, FORESTOMACH: PAPILLOMA, ESOPHAGUS: PAPILLOMA, Tumor Site: Type of Lesion: LIVER: HEPATOCELLULAR CARCINOMA, SMALL INTESTINE: ADENOCARCINOMA, FORESTOMACH: PAPILLOMA, ESOPHAGUS: PAPILLOMA
  carcinogen call: active; positive
Species: RAT, Strain/Sex: WISTAR/MALE, Route: ORAL, Dose: 0, 80, 400, 2000 IN DIET FOR 24 MO (STUDY DURATION: 24 MO), Dose: 0, 80, 400, 2000 IN DIET FOR 24 MO (STUDY DURATION: 24 MO), Tumor Site: Type of Lesion: SMALL INTESTINE: ADENOCARCINOMA, FORESTOMACH: PAPILLOMA, ESOPHAGUS: PAPILLOMA, Tumor Site: Type of Lesion: SMALL INTESTINE: ADENOCARCINOMA, FORESTOMACH: PAPILLOMA, ESOPHAGUS: PAPILLOMA
  carcinogen call: active; positive

## C#C[C@]1(OC(C)=O)CC[C@H]2[C@@H]3CCC4=C[C@@H](OC(C)=O)CC[C@@H]4[C@H]3CC[C@@]21C
Species: MOUSE, Route: ORAL, Tumor Site: Type of Lesion: MAMMARY GLAND
  carcinogen call: active; positive
Species: RAT, Route: ORAL, Tumor Site: Type of Lesion: MAMMARY GLAND
  carcinogen call: active; positive
